Legend:
human TLR7 = biological target: T1, human TLR7 (Homo sapiens, UniProt Q9NYK1); experiment: HEK293-Blue-hTLR-7 cells assay (SEAP reporter); assay type: cell-based; conditions: 20 hours incubation
T1 sequence (Q9NYK1 27-1049): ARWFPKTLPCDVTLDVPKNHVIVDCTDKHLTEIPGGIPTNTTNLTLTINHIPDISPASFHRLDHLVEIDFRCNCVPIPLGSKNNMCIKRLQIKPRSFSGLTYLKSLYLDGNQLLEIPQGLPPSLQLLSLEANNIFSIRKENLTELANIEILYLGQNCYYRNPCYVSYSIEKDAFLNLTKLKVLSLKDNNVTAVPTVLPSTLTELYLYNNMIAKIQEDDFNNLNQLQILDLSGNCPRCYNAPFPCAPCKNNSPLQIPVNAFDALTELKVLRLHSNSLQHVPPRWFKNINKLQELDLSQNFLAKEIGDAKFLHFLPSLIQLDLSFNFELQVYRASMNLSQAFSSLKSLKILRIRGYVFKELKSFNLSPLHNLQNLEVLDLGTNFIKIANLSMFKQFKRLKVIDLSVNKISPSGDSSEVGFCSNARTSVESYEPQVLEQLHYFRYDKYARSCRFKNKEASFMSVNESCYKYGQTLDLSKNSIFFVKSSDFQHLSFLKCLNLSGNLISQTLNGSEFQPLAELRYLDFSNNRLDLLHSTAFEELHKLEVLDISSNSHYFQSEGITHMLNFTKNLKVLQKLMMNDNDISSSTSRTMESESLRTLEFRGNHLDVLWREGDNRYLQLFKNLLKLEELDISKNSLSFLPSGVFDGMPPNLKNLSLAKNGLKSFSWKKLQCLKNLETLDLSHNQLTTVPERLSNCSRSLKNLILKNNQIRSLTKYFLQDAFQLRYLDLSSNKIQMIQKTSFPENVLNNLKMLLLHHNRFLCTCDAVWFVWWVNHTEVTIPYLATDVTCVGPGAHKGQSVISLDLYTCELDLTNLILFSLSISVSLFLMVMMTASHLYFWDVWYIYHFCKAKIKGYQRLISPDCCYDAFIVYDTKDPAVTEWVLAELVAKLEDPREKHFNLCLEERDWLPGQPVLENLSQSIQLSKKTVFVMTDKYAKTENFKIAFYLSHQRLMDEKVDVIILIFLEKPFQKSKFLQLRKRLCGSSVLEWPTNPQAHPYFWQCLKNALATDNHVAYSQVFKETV
Description: A stable HEK293-Blue-hTLR-7 cell line was purchased from InvivoGen (Cat.#: hkb-ht1r7, San Diego, Calif., USA). These cells were designed for studying the stimulation of human TLR7 by monitoring the activation of NF-κB. A SEAP (secreted embryonic alkaline phosphatase) reporter gene was placed under the control of the IFN-β minimal promoter fused to five NF-κB and AP-1-binding sites. The SEAP was induced by activating NF-κB and AP-1 via stimulating HEK-Blue hTLR7 cells with TLR7 ligands. Therefore the reporter expression was regulated by the NF-κB promoter upon stimulation of human TLR7 for 20 hours. The cell culture supernatant SEAP reporter activity was determined using QUANTI-Blue™ kit (Cat.#: rep-qb1, Invivogen, San Diego, Calif., USA) at a wavelength of 640 nm, a detection medium that turns purple/blue in the presence of alkaline phosphatase.
HEK293-Blue-hTLR7 cells were incubated at a density of 250,000˜450,000 cells/mL in a volume of 180 μL in a 96-well plate in Dulbecco's Modified Eagle's medium (DMEM) containing 4.5 g/L glucose, 50 U/mL penicillin, […] streptomycin, […] Normocin, 2 mM L-glutamine, 10% (v/v) heat-inactivated fetal bovine serum for 24 h. Then the HEK293-Blue-hTLR-7 cells were incubated with addition of 20 μL test compound in a serial dilution in the presence of final DMSO at 1% and perform incubation under 37° C. in a CO2 incubator for 20 hours. Then 20 μL of the supernatant from each well was incubated with 180 μL Quanti-blue substrate solution at 37° C. for 2 h and the absorbance was read at 620˜655 nm using a spectrophotometer. The signalling pathway that TLR7 activation leads to downstream NF-κB activation has been widely accepted, and therefore similar reporter assay was also widely used for evaluating TLR7 agonist (Tsuneyasu Kaisho and Takashi Tanaka, Trends in Immunology, Volume 29, Issue 7, July 2008, […]; Hiroaki Hemmi et al, Nature Immunology 3, 196-200 (2002).

murine TLR7 = biological target: T2, murine TLR7 (Mus musculus, UniProt P58681); experiment: HEK293-Blue-mTLR7 assay (SEAP reporter); assay type: cell-based; conditions: HEK293-Blue-mTLR7 cells, 20 hours, Quanti-Blue; read-out: EC50 murine TLR7 activation
T2 sequence (P58681 27-1050): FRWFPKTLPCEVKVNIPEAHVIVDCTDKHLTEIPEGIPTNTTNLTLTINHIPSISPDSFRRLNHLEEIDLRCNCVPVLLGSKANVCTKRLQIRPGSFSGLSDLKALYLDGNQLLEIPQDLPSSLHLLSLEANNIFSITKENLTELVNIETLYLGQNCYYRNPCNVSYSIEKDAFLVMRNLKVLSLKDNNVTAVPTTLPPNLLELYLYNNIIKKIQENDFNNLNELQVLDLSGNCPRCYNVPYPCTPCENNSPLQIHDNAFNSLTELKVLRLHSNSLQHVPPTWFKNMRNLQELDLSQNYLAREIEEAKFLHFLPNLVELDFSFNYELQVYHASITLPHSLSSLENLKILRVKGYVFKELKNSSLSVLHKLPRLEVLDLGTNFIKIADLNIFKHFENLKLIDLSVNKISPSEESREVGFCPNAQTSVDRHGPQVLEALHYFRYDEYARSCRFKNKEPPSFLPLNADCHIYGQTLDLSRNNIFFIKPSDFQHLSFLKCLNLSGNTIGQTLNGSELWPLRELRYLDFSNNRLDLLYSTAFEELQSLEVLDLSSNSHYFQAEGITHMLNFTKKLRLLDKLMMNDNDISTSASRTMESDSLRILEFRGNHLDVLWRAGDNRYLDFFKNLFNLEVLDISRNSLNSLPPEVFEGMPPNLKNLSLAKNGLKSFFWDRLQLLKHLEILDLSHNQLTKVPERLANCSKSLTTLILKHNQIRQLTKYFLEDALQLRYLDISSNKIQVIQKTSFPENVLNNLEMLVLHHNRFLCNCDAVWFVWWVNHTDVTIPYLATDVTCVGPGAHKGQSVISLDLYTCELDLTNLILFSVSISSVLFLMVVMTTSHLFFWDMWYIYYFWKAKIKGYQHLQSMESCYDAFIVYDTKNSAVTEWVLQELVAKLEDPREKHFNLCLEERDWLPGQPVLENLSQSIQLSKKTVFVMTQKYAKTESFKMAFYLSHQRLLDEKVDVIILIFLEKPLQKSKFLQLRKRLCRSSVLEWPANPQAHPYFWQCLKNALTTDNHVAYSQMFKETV
Method: The potency of the TLR7 agonist Example 4-A was assessed in murine TLR7 activation using a stable HEK293-Blue-mTLR7 cell line purchased from InvivoGen (Cat.#: hkb-mt1r7, San Diego, Calif., USA). Similar to the HEK293-Blue-hTLR7 as described in Example 26, the HEK293-Blue-mTLR7 was designed for studying the stimulation of murine TLR7 by monitoring the activation of NF-κB. A SEAP reporter gene was placed under the control of the IFN-β minimal promoter fused to five NF-κB and AP-1-binding sites. SEAP expression was induced by the activation of NF-κB and AP-1 upon stimulation of murine TLR7 with TLR7 ligands. SEAP expression in cell culture supernatant was determined using QUANTI-Blue™ kit (Cat.#: rep-qb1, Invivogen, San Diego, Ca, USA) at a wavelength of 640 nm, a detection medium that turns purple/blue in the presence of alkaline phosphatase.
HEK293-Blue-mTLR7 cells were incubated at a density of 250,000˜450,000 cells/mL in a volume of 180 μL in a 96-well plate in Dulbecco's Modified Eagle's medium (DMEM) containing 4.5 g/L glucose, 50 U/mL penicillin, […], […], 2 mM L-glutamine, 10% (v/v) heat-inactivated fetal bovine serum for 24 h. […] Then 20 μL of the supernatant from each well was incubated with 180 μl Quanti-blue substrate solution at 37° C. for 2 hours and the absorbance was read at 640 nm using a spectrophotometer.

EC50 (human TLR7): 7.9 µM
EC50 (murine TLR7): 7.8 µM
SMILES: Nc1nc2c(sc(=O)n2[C@H]2CS[C@@H](C(O)C3CC3)O2)c(=O)[nH]1 (single isomer, unassigned) [Example 4-A]
